Experimental data published in BindingDB's records for doi:10.1007/pl00005315 (Eli Lilly, 1999).

What was measured:
[1] = target: 5-hydroxytryptamine receptor 2A (Homo sapiens, UniProt P28223)
[2] = target: 5-hydroxytryptamine receptor 2B (Rattus norvegicus, UniProt P30994)
[3] = target: 5-hydroxytryptamine receptor 2B (Homo sapiens, UniProt P41595)
[4] = target: T1, 5-hydroxytryptamine receptor 2C (Homo sapiens, UniProt P28335)
T1 sequence (P28335 whole entry): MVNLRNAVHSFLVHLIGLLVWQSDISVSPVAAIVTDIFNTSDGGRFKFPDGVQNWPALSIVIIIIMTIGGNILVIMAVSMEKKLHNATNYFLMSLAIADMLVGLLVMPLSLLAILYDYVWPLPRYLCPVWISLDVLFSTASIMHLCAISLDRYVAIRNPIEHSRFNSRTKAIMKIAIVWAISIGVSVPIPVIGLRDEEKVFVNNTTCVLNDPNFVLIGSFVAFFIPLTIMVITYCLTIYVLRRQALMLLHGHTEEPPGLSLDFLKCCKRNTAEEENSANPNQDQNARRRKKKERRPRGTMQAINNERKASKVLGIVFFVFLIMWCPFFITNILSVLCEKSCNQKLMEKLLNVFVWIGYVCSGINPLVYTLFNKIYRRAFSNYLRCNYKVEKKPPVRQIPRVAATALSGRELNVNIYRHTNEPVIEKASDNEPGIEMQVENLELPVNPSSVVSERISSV

Chain of 5-hydroxytryptamine receptor 2B (Rattus norvegicus, UniProt P30994) (P30994 whole entry): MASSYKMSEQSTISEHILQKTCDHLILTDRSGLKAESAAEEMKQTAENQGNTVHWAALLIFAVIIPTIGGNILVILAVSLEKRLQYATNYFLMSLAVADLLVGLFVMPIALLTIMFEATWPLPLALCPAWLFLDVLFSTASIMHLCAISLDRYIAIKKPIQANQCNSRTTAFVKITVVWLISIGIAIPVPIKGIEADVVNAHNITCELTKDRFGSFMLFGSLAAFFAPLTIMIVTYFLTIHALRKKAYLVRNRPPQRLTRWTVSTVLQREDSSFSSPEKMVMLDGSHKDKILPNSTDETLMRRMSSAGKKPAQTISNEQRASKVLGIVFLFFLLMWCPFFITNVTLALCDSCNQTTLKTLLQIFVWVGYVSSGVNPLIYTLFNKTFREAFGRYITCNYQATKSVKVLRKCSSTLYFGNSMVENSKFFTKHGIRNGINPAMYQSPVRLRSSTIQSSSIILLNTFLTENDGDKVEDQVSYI
Chain of 5-hydroxytryptamine receptor 2A (P28223 whole entry): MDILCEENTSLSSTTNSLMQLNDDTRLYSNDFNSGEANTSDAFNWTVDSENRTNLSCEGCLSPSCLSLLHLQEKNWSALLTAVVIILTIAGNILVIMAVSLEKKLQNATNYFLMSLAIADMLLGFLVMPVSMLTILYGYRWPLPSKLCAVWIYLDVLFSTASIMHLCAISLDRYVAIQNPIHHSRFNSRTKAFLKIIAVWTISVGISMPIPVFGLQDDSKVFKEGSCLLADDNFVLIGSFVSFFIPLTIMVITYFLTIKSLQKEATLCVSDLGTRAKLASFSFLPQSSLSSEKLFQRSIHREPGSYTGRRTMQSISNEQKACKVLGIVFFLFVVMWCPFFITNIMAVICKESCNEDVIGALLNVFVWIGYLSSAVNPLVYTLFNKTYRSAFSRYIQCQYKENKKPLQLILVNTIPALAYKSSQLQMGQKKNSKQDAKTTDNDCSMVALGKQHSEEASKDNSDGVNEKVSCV
Chain of 5-hydroxytryptamine receptor 2B (Homo sapiens, UniProt P41595) (P41595 whole entry): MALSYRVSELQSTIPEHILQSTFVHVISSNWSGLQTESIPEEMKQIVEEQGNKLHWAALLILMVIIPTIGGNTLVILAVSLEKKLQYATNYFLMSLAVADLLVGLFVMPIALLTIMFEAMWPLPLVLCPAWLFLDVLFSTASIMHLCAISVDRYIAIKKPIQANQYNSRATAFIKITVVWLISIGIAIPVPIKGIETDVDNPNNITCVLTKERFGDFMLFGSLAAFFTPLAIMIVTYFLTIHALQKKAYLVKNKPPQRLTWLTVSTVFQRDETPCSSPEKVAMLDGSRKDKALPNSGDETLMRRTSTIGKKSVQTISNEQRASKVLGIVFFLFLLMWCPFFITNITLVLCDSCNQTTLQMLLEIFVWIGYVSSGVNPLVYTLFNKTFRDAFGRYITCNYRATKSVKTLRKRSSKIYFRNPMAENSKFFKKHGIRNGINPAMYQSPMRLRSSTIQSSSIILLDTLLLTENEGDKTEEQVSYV

Row | SMILES | Ki [1] | Ki [2] | Ki [3] | Ki [4]
1 | COc1cc(CC(C)N)cc(OC)c1OC (configuration not stated) | 57.9 nM | 187 nM | 307 nM | 
2 | CCCNC(C)Cc1cc(OC)c(Br)cc1OC (configuration not stated) |  | 976 nM | 521 nM | 514 nM
3 | COc1cc(CC(C)N)c(OC)cc1F (configuration not stated) | 41.7 nM | 306 nM | 227 nM | 28.7 nM
4 | COc1cc(CC(C)N)c(OC)cc1C#N (configuration not stated) | 45.7 nM | 877 nM | 774 nM | 1010 nM
5 | COc1cc(CC(C)N)c(OC)cc1Cc1ccccc1 (configuration not stated) | 0.4 nM | 53.8 nM | 35 nM | 1 nM
6 | COc1cc(C(C)=O)c(OC)cc1CC(C)N (configuration not stated) [1-(4-acetyl-2,5-dimethoxyphenyl)-2-aminopropane] | 80.5 nM | 947 nM | 313 nM | 91.3 nM
7 | CCCc1cc(OC)c(CC(C)N)cc1OC (configuration not stated) [2-(2,5-Dimethoxy-4-propyl-phenyl)-1-methyl-ethylamine(DOPR)] | 0.9 nM | 115 nM | 54.4 nM | 1.1 nM
8 | COc1ccc(OC)c(CC(C)N)c1 (configuration not stated) [2-(2,5-Dimethoxy-phenyl)-1-methyl-ethylamine] |  |  | 1040 nM | 104 nM
9 | COc1cc(CC(C)N)c(OC)cc1Br (stereo not drawn) [2-(4-Bromo-2,5-dimethoxy-phenyl)-1-methyl-ethylamine((-)-DOB)] |  |  | 26.9 nM | 
10 | C[C@]12CC[C@H]3[C@@H](CCC4=CC(=O)CC[C@@]43C)[C@@H]1CC[C@@H]2C(=O)CO [(1S,2R,10S,11S,14S,15S)-14-(2-hydroxyacetyl)-2,15-dimethyltetracyclo[8.7.0.0^{2,7}.0^{11,15}]heptadec-6-en-5-one] | 1.4 nM | 26.8 nM | 31.8 nM | 2 nM
11 | COCCOCCl [CAS_3970-21-6] | 73 nM | 1130 nM | 763 nM | 124 nM
12 | CCCCCCc1cc(OC)c(CC(C)N)cc1OC (configuration not stated) [DOHx] | 0.1 nM | 49 nM | 30.3 nM | 0.7 nM
13 | COc1cc([N+](=O)[O-])c(OC)cc1CC(C)N (configuration not stated) [DON] | 5.5 nM | 248 nM | 166 nM | 22.4 nM
14 | COc1cc(C(C)(C)C)c(OC)cc1CC(C)N (configuration not stated) [DOTB] | 3.7 nM | 49.6 nM | 24.6 nM | 2.2 nM
15 | COc1cc(CC(C)N(C)C)c(OC)cc1Br (configuration not stated) [M-154] | 94.2 nM | 683 nM | 341 nM | 68.1 nM
16 | COc1cc(CC(C)[N+](C)(C)C)c(OC)cc1Br (configuration not stated) [N,N,N-trimethyl-1-(4-bromo-2,5-dimethoxyphenyl)-2-aminopropane] | 2150 nM | > 10000 nM | > 10000 nM | 6300 nM
